# Results: ChEMBL document CHEMBL3758109, “A novel triazole derivative of betulinic acid induces extrinsic and intrinsic apoptosis in human leukemia HL-60 cells” (Eur J Med Chem, 2016)
# Tests used:
# Assay type in all cases: functional
# [1] = Cytotoxicity against human PC3 cells assessed as cell growth inhibition at 10 uM after 48 hrs by MTT assay; settings: PC-3, 48 h, read-out: GI
# [2] = Cytotoxicity against human MIAPaCa2 cells assessed as cell growth inhibition at 10 uM after 48 hrs by MTT assay; settings: MIA PaCa-2, 48 h, read-out: GI
# [3] = Cytotoxicity against human HL60 cells assessed as cell growth inhibition at 10 uM after 48 hrs by MTT assay; settings: HL-60, 48 h, read-out: GI
# A549 = experiment: Cytotoxicity against human A549 cells assessed as cell growth inhibition at 10 uM after 48 hrs by MTT assay; settings: A549, 48 h, read-out: GI
SMILES,inhibition of growth at 10 µM [1] [%],inhibition of growth at 10 µM [2] [%],inhibition of growth at 10 µM [3] [%],inhibition of growth at 10 µM (A549) [%]
C#CCOC(=O)[C@]12CC[C@@H](C(=C)C)[C@@H]1[C@H]1CC[C@@H]3[C@@]4(C)CC[C@H](O)C(C)(C)[C@@H]4CC[C@@]3(C)[C@]1(C)CC2,46,20,50,41
C=C(C)[C@@H]1CC[C@]2(C(=O)OCc3cn(-c4ccccc4C#N)nn3)CC[C@]3(C)[C@H](CC[C@@H]4[C@@]5(C)CC[C@H](OCc6cn(-c7ccccc7C#N)nn6)C(C)(C)[C@@H]5CC[C@]43C)[C@@H]12,15,23,12,0
C=C(C)[C@@H]1CC[C@]2(C(=O)OCc3cn(/C=C/c4ccccc4)nn3)CC[C@]3(C)[C@H](CC[C@@H]4[C@@]5(C)CC[C@H](O)C(C)(C)[C@@H]5CC[C@]43C)[C@@H]12,8,35,20,47
C=C(C)[C@@H]1CC[C@]2(C(=O)OCc3cn(-c4cccc5c(O)cccc45)nn3)CC[C@]3(C)[C@H](CC[C@@H]4[C@@]5(C)CC[C@H](O)C(C)(C)[C@@H]5CC[C@]43C)[C@@H]12,5,3,26,7
C=C(C)[C@@H]1CC[C@]2(C(=O)OCc3cn(-c4ccc5oc6ccccc6c5c4)nn3)CC[C@]3(C)[C@H](CC[C@@H]4[C@@]5(C)CC[C@H](O)C(C)(C)[C@@H]5CC[C@]43C)[C@@H]12,4,7,14,5
C=C(C)[C@@H]1CC[C@]2(C(=O)OCc3cn(-c4ccc(OCCC)c(Cl)c4)nn3)CC[C@]3(C)[C@H](CC[C@@H]4[C@@]5(C)CC[C@H](O)C(C)(C)[C@@H]5CC[C@]43C)[C@@H]12,7,3,23,1
C=C(C)[C@@H]1CC[C@]2(C(=O)OCc3cn(-c4ccc(F)cc4)nn3)CC[C@]3(C)[C@H](CC[C@@H]4[C@@]5(C)CC[C@H](OCc6cn(-c7ccc(F)cc7)nn6)C(C)(C)[C@@H]5CC[C@]43C)[C@@H]12,8,7,13,11
C=C(C)[C@@H]1CC[C@]2(C(=O)OCc3cn(-c4cccc(OC)c4OC)nn3)CC[C@]3(C)[C@H](CC[C@@H]4[C@@]5(C)CC[C@H](O)C(C)(C)[C@@H]5CC[C@]43C)[C@@H]12,49,30,58,48
C=C(C)[C@@H]1CC[C@]2(C(=O)OCc3cn(-c4cccc([N+](=O)[O-])c4)nn3)CC[C@]3(C)[C@H](CC[C@@H]4[C@@]5(C)CC[C@H](O)C(C)(C)[C@@H]5CC[C@]43C)[C@@H]12,10,9,21,8
C=C(C)[C@@H]1CC[C@]2(C(=O)OCc3cn(-c4ccc5ccccc5c4)nn3)CC[C@]3(C)[C@H](CC[C@@H]4[C@@]5(C)CC[C@H](O)C(C)(C)[C@@H]5CC[C@]43C)[C@@H]12,7,6,18,1
C=C(C)[C@@H]1CC[C@]2(C(=O)OCc3cn(-c4ccc(C(C)(C)C)cc4)nn3)CC[C@]3(C)[C@H](CC[C@@H]4[C@@]5(C)CC[C@H](O)C(C)(C)[C@@H]5CC[C@]43C)[C@@H]12,9,9,11,9
